# Assay results published in ChEMBL document CHEMBL1138366, “Conformational comparisons of a series of tachykinin peptide analogs” (J Med Chem, 2007).
# Residues, ends and D or L forms follow the SMILES beside them.
# Target: Substance-P receptor (Rattus norvegicus, UniProt P14600)
# Test: Displacement of [125I]Lys3-substance P from rat NK1 receptor expressed in CHO cells
# Type: cell-based
# Chain of Substance-P receptor (P14600 whole entry): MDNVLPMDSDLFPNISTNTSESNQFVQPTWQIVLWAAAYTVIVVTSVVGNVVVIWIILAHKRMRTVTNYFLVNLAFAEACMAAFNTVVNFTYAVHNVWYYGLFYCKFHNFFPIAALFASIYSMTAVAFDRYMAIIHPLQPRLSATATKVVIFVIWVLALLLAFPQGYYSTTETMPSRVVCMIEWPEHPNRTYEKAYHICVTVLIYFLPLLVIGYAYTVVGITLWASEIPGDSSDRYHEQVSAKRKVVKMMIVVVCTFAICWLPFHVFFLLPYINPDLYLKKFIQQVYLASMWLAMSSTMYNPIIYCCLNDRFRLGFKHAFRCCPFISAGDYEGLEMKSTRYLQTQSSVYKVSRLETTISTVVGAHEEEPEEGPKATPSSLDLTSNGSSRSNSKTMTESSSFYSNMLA
IC50 (read-out: IC50),IC50 (read-out: Log IC50 (converted)),SMILES
4.6 nM,,CSCC[C@H](NC(=O)[C@H](CC(C)C)NC(=O)CNC(=O)[C@H](Cc1ccccc1)NC(=O)[C@H](Cc1ccccc1)NC(=O)[C@H](CCC(N)=O)NC(=O)[C@H](CCC(N)=O)NC(=O)[C@@H]1CCCN1C(=O)[C@H](CCCCN)NC(=O)[C@@H]1CCCN1)C(N)=O (H-PKPQQFFGLM-NH2)
4.1 nM,,CSCC[C@H](NC(=O)[C@H](CC(C)C)NC(=O)CNC(=O)[C@H](Cc1ccccc1)NC(=O)[C@H](Cc1ccccc1)NC(=O)[C@H](CO)NC(=O)[C@H](CCC(N)=O)NC(=O)[C@@H]1CCCN1C(=O)[C@H](CCCCN)NC(=O)[C@@H]1CCCN1C(=O)[C@@H](N)CCCN=C(N)N)C(N)=O
0.7 nM,,CSCC[C@H](NC(=O)[C@H](CC(C)C)NC(=O)CNC(=O)[C@H](Cc1ccccc1)NC(=O)[C@H](Cc1ccccc1)NC(=O)[C@H](CCC(N)=O)NC(=O)[C@H](C)NC(=O)[C@@H]1CCCN1C(=O)[C@H](CCCCN)NC(=O)[C@@H]1CCCN1C(=O)[C@@H](N)CCCNC(=N)N)C(N)=O
,32.4 nM,CC[C@H](C)[C@H](NC(=O)[C@H](Cc1ccccc1)NC(=O)[C@H](CO)NC(=O)[C@H](C)NC(=O)[C@@H]1CCCN1C(=O)[C@H](CC(N)=O)NC(=O)[C@@H](N)Cc1cnc[nH]1)C(=O)NCC(=O)N[C@@H](CC(C)C)C(=O)N[C@@H](CCSC)C(N)=O (H-HNPASFIGLM-NH2)
21 nM,,CSCC[C@H](NC(=O)[C@H](CC(C)C)NC(=O)CNC(=O)[C@H](Cc1ccccc1)NC(=O)[C@H](Cc1ccccc1)NC(=O)[C@H](CO)NC(=O)[C@H](C)NC(=O)[C@@H]1CCCN1C(=O)[C@H](CCCCN)NC(=O)[C@@H]1CCCN1C(=O)[C@@H](N)CCCN=C(N)N)C(N)=O (H-RPKPASFFGLM-NH2)
